Experimental data: patent publication US20230219965A1 (KSQ Therapeutics, Inc., priority 2020, published 2023)
Read-outs that look alike come from different tables or passages of the source.

Columns and labels:
[1] = ADME solubility determination in PBS at pH 2.0 and pH 7.4; assay type: physicochemical; conditions: phosphate buffered saline, 25 °C, thermodynamic from solid
In short: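 Dried 10 mM DMSO stock residues taken up in PBS pH 7.4 or pH 2.0, shaken 24 h at 25° C. After centrifugation, supernatant quantified by LC-MS/MS against a standard of known concentration, with a dilution factor applied.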

[2] = tested on: Ub-PCNA levels in the nucleus of ES2 cells (USP1 activity); experiment: ES2 Ub-PCNA immunofluorescence (IF) assay; assay type: cell-based; conditions: Homo sapiens, read-out: USP1 IC50 (Ub-PCNA)
In short: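 Cells plated overnight, then compound-treated for 3 h at 37° C (0.3% DMSO final), methanol-fixed and stained with anti-Ub-PCNA plus DAPI. Per-nucleus Ub-PCNA intensity imaged; cells above the 95% cutoff of untreated wells counted as positive, and percent positive cells used to derive AC50.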

[3] = Liver microsomal metabolic stability, rat liver microsomes (RLM); conditions: rat, liver microsomes, t1/2 (min) in RLM, 1 μM compound, 1 mg/mL microsomes, NADPH
[4] = target: USP1/UAF1 enzyme (Homo sapiens, UniProt O94782); experiment: USP1/UAF1 deubiquitination assay (ubiquitin-rhodamine 110 substrate); assay type: biochemical; conditions: read-out: USP1 IC50 (Ub-Rho)
In short: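 0.05 nM USP1/UAF1 was preincubated 10 min with compounds (dose response from 10 μM) in 50 mM Tris-HCl pH 7.8, 0.5 mM EDTA, 0.01% BSA, 1 mM DTT, 0.01% Tween-20. 150 nM ubiquitin-rhodamine 110 started the reaction, read kinetically 30 min at Ex480/Em540; IC50 by four-parameter fit versus no-enzyme and DMSO controls.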

[5] = Liver microsomal metabolic stability, human liver microsomes (HLM); conditions: human, liver microsomes
Description: Samples were prepared by adding 222.5 μL of a master solution (100 mM phosphate buffer and 1 mg/mL liver microsomes (HLM or RLM)) and 25 μL of a 10 mM NADPH solution to incubation plates, which were then warmed for 10 min. Each compound was separately dissolved in DMSO to prepare 10 mM stock solutions, which were then diluted to 100 μM with acetonitrile. A reaction was started by adding 2.5 μL of the 100 μM solution of each compound to separate incubation plates such that the final concentration of for each compound in each plate was 1 μM.
25 μL aliquots of each sample were taken at 0.5, 5, 10, 15, 20 and 30 minutes, and the reaction was stopped by adding 5 volumes of cold acetonitrile with IS (100 nM alprazolam, 200 nM caffeine and 100 nM tolbutamide). The samples were then centrifuged at 3,220 G for 30 minutes, and 100 μL of the supernatant fluid was mixed with 100 μL of ultra-pure H2O.
The samples were then analyzed by LC-MS/MS. Peak areas were determined from extracted ion chromatograms. Slope values (k) were determined by linear regression of the natural logarithm of the remaining percentage of the compound vs. incubation time curve. The in vitro half-life (in vitro t1/2) was determined from the slope value using the following equation:

[6] = pH 2, aqueous buffer, PBS pH 2.0, 25° C., read-out: Solubility at pH 2.0
[7] = pH 7.4, aqueous buffer, PBS pH 7.4, 25° C., read-out: Solubility at pH 7.4
[8] = ES-2, ES2 cells, 3 hours, Ub-PCNA immunofluorescence

Sequence of USP1/UAF1 enzyme (O94782 whole entry): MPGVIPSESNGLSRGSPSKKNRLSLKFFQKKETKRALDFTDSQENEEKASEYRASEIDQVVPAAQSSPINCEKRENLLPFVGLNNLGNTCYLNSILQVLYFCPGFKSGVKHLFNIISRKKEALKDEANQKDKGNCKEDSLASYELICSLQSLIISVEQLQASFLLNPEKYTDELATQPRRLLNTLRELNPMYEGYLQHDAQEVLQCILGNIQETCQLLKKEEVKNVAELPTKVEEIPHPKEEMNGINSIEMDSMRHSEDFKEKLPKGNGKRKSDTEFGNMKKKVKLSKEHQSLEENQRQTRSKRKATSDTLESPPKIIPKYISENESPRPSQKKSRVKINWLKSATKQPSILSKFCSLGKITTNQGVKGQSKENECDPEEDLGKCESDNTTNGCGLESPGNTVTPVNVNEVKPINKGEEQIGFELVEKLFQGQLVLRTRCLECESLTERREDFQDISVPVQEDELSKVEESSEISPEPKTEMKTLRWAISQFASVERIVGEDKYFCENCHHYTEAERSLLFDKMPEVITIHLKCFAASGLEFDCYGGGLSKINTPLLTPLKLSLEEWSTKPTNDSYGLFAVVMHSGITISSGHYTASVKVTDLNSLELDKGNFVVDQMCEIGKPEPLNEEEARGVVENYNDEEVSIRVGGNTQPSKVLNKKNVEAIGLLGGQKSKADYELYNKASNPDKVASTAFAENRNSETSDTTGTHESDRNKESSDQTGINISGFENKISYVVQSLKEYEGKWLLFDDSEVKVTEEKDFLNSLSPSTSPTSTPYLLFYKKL
Sequence of USP1/UAF1 enzyme (Q8TAF3 whole entry partner): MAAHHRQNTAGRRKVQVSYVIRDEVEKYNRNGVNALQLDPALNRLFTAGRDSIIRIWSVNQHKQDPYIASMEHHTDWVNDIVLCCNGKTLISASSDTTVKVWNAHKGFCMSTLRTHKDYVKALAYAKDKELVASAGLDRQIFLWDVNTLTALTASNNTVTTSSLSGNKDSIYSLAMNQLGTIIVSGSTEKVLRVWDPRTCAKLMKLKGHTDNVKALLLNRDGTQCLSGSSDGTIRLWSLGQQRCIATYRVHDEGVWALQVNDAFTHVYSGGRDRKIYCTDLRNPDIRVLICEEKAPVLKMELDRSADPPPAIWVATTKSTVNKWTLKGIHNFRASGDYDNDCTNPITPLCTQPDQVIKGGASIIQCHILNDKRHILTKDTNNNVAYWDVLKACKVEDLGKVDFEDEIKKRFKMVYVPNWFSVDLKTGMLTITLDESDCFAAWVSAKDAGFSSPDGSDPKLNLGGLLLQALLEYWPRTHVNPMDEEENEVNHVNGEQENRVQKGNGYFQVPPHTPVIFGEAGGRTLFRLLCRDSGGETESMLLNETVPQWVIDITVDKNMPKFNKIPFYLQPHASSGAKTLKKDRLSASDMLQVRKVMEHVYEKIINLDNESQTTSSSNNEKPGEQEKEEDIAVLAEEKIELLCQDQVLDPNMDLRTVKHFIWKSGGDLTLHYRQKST

solubility at 24 h [1, 6] [µM] | solubility at 24 h [1, 7] [µM] | IC50 [2, 8] [nM] | half-life at 1 μM [3] [min] | IC50 [4] [nM] | half-life at 1 μM [5] [min] | SMILES | IC50 ([2]; ES-2, 3 h) [nM]
< 10 | < 10 | < 100 | < 25 | < 100 | < 25 | CCn1cc(C(F)(F)F)nc1-c1ccc(COC2CCCn3nc(-c4c(Cl)cnn4C(C)C)cc32)cc1 (stereo not drawn) [Example 270, 2-(4-chloro-1-isopropyl-1H-pyrazol-5-yl)-4-((4-(1-ethyl-4-(trifluoromethyl)-1H-imidazol-2-yl)benzyl)oxy)-4,5,6,7-tetrahydropyrazolo[1,5-α]pyridine] | 
≥ 10 | < 10 | 100 to 500 | < 25 | < 100 | < 25 | CC(C)n1ncc(Cl)c1-c1cc2n(n1)CCC(=O)N2Cc1ccc(-c2ncccc2OC2CC2)c(Cl)c1 [Example 290] | 
< 10 | < 10 | 100 to 500 | < 25 | < 100 | < 25 | CC(C)Oc1cccnc1-c1ccc(CN2C(=O)CCn3nc(-c4c(Cl)cnn4C(C)C)cc32)cc1 [Example 291] | 
< 10 | < 10 | < 100 | < 25 | < 100 | > 25 | COc1ccc(C(F)(F)F)nc1-c1ccc(CN2C(=O)CCn3nc(-c4c(Cl)cnn4C(C)C)cc32)cc1Cl [Example 294] | 
≥ 10 | < 10 | 100 to 500 | < 25 | < 100 | < 25 | CC(C)n1ncc(Cl)c1-c1cc2n(n1)CCC(=O)N2Cc1ccc(-c2ncccc2N2CCOCC2)c(Cl)c1 [Example 296] | 
≥ 10 | < 10 | 100 to 500 | < 25 | < 100 | < 25 | CC(C)Oc1cccnc1-c1ccc(CN2C(=O)CCn3nc(-c4c(Cl)cnn4C(C)C)nc32)cc1 [Example 304] | 
≥ 10 | < 10 | 100 to 500 | < 25 | < 100 | < 25 | COc1cccnc1-c1ccc(CN2C(=O)CCn3nc(-c4c(Cl)cnn4C(C)C)cc32)cc1 [Example 305] | 
< 10 | < 10 | 100 to 500 | < 25 | < 100 | < 25 | CCOc1cccnc1-c1ccc(CN2C(=O)CCn3nc(-c4c(Cl)cnn4C(C)C)cc32)cc1Cl [Example 307] | 
≥ 10 | < 10 | 100 to 500 | < 25 | < 100 | < 25 | COc1ccc(C)nc1-c1ccc(CN2C(=O)CCn3nc(-c4c(Cl)cnn4C(C)C)cc32)cc1Cl [Example 309] | 
≥ 10 | < 10 | < 100 | < 25 | < 100 | < 25 | CC(C)n1ncc(Cl)c1-c1cc2n(n1)CCC(=O)N2Cc1ccc(-c2ncccc2N(C)C)cc1 [Example 321] | 
≥ 10 | < 10 | < 100 | < 25 | < 100 | < 25 | CCn1cc(C(F)(F)F)nc1-c1ccc(CN2CC(C)(C)Cn3nc(-c4c(OC)ncnc4C4CC4)cc32)cc1F [Example 327, 2-(4-cyclopropyl-6-methoxypyrimidin-5-yl)-4-(4-(1-ethyl-4-(trifluoromethyl)-1H-imidazol-2-yl)-3-fluorobenzyl)-6,6-dimethyl-4,5,6,7-tetrahydropyrazolo[1,5-α]pyrimidine] | 
≥ 10 | ≥ 10 | < 100 | > 25 | < 100 | > 25 | CCn1cc(C(F)(F)F)nc1-c1ccc(Cn2c(=O)ccn3nc(-c4c(OC)ncnc4C4CC4)cc23)cc1 [Example 332, 2-(4-cyclopropyl-6-methoxypyrimidin-5-yl)-4-(4-(1-ethyl-4-(trifluoromethyl)-1H-imidazol-2-yl)benzyl)pyrazolo[1,5-α]pyrimidin-5(4H)-one] | 
< 10 | < 10 | < 100 | > 25 | < 100 | > 25 | CCn1cc(C(F)(F)F)nc1-c1ccc([C@@H](C)n2c(=O)ccn3nc(-c4c(OC)ncnc4C4CC4)cc23)cc1F [Example 333, (R)-2-(4-cyclopropyl-6-methoxypyrimidin-5-yl)-4-(1-(4-(1-ethyl-4-(trifluoromethyl)-1H-imidazol-2-yl)-3-fluorophenyl)ethyl)pyrazolo[1,5-α]pyrimidin-5(4H)-one] | 
≥ 10 | < 10 | < 100 | > 25 | < 100 | > 25 | CCn1cc(C(F)(F)F)nc1-c1ccc([C@@H](C)n2c(=O)ccn3nc(-c4c(OC)ncnc4C4CC4)cc23)cc1 [Example 335, (R)-2-(4-cyclopropyl-6-methoxypyrimidin-5-yl)-4-(1-(4-(1-ethyl-4-(trifluoromethyl)-1H-imidazol-2-yl)phenyl)ethyl)pyrazolo[1,5-a]pyrimidin-5(4H)-one] | 
≥ 10 | < 10 | < 100 | > 25 | < 100 | < 25 | CCn1cc(C(F)(F)F)nc1-c1ccc([C@H](C)n2c(=O)ccn3nc(-c4c(OC)ncnc4C4CC4)cc23)cc1 [Example 336, (S)-2-(4-cyclopropyl-6-methoxypyrimidin-5-yl)-4-(1-(4-(1-ethyl-4-(trifluoromethyl)-1H-imidazol-2-yl)phenyl)ethyl)pyrazolo[1,5-a]pyrimidin-5(4H)-one] | 
≥ 10 | < 10 | < 100 | > 25 | < 100 | > 25 | CCn1cc(C(F)(F)F)nc1-c1ccc(Cn2c(=O)ccn3nc(-c4c(OC)ncnc4C4CC4)nc23)cc1 [Example 337, 2-(4-cyclopropyl-6-methoxypyrimidin-5-yl)-4-(4-(1-ethyl-4-(trifluoromethyl)-1H-imidazol-2-yl)benzyl)-[1,2,4]triazolo[1,5-α]pyrimidin-5(4H)-one] | 
≥ 10 | < 10 | < 100 | < 25 | < 100 | > 25 | CCn1cc(C(F)(F)F)nc1-c1ccc([C@@H](C)n2c(=O)ccn3nc(-c4c(OC)ncnc4C4CC4)nc23)cc1 [Example 338, (R)-2-(4-cyclopropyl-6-methoxypyrimidin-5-yl)-4-(1-(4-(1-ethyl-4-(trifluoromethyl)-1H-imidazol-2-yl)phenyl)ethyl)-[1,2,4]triazolo[1,5-a]pyrimidin-5(4H)-one] | 
≥ 10 | < 10 | < 100 | > 25 | < 100 | < 25 | CCn1cc(C(F)(F)F)nc1-c1ccc([C@H](C)n2c(=O)ccn3nc(-c4c(OC)ncnc4C4CC4)nc23)cc1 [Example 339, (S)-2-(4-cyclopropyl-6-methoxypyrimidin-5-yl)-4-(1-(4-(1-ethyl-4-(trifluoromethyl)-1H-imidazol-2-yl)phenyl)ethyl)-[1,2,4]triazolo[1,5-a]pyrimidin-5(4H)-one] | 

SMILES | solubility at 24 h [1, 6] [µM] | solubility at 24 h [1, 7] [µM] | IC50 [2, 8] [nM] | half-life at 1 μM [3] [min] | IC50 [4] [nM] | half-life at 1 μM [5] [min] | IC50 ([2]; ES-2, 3 h) [nM]
CCn1cc(C(F)(F)F)nc1-c1ccc(CNC2CCCn3nc(-c4c(Cl)cnn4C(C)C)cc32)cc1 (stereo not drawn) [Example 330, 2-(4-chloro-1-isopropyl-1H-pyrazol-5-yl)-N-(4-(1-ethyl-4-(trifluoromethyl)-1H-imidazol-2-yl)benzyl)-4,5,6,7-tetrahydropyrazolo[1,5-α]pyridin-4-amine] | ≥ 10 | < 10 |  | < 25 | < 100 | < 25 | < 100
CCn1cc(C(F)(F)F)nc1-c1ccc(N(CCO)C2CCCn3nc(-c4c(Cl)cnn4C(C)C)cc32)cc1F (stereo not drawn) [Example 331, 2-((2-(4-chloro-1-isopropyl-1H-pyrazol-5-yl)-4,5,6,7-tetrahydropyrazolo[1,5-α]pyridin-4-yl)(4-(1-ethyl-4-(trifluoromethyl)-1H-imidazol-2-yl)-3-fluorophenyl)amino)-ethan-1-ol] | < 10 | < 10 | < 100 | < 25 | < 100 | < 25 | 
